Results reported in patent publication US8148424B2, “Tocopherols, tocotrienols, other chroman and side chain derivatives and uses thereof” (Research Development Foundation, priority 1998, dated 2012).
Converted amounts (≈) assume the structure as drawn.

Assays:
[1] = system: human cancer cells from a wide variety of cell lineages; assay: Apoptosis induction in a battery of tumor cells; type: cell-based; details: breast, prostate, leukemia/lymphoid, cervical, ovarian, endometrial, colon, lung cell lines
Experimental: (§1) Cells were cultured at 1.5×10^5 cells/well in 12 well plates. Cells were allowed to adhere overnight, then incubated with novel test compounds at 0.01, 0.1, 1, 5, 10 & 20 μg/mL for 1, 2 and 3 days. After treatment, cells (floating+trypsin released adherent cells) were pelleted, washed and stained with 2 μg/ml DAPI (4′,6-diamidine-2′-phenylindole dihydrochloride) in 100% methanol for 15 minutes at 37° C. and/or 3′-OH ends resulting from DNA fragmentation were detected with the TUNEL (terminal deoxynucleotidyl transferase-mediated dUTP-X 3′ nick end-labeling) technique, and then viewed using a Zeiss ICM 405 microscope. Cells whose nucleus contained clearly condensed or fragmented chromatin or stained for fragmented DNA in the TUNEL assay were scored as apoptotic. Data are presented as percent cells undergoing apoptosis.

HMEC = assay: Bioassay for apoptosis (apoptotic EC50); type: cell-based; details: Homo sapiens, unit inferred
Experimental: as §1

MCF-10A = assay: Bioassay for apoptosis (apoptotic EC50); type: cell-based; details: Homo sapiens, unit inferred
Experimental: as §1

MDA-MB-231 = assay: Bioassay for apoptosis (apoptotic EC50); type: cell-based, human; details: Homo sapiens, MDA-MB-231, MDA-MB-231; unit inferred
Experimental: as §1

PC-3 = assay: Bioassay for apoptosis (apoptotic EC50); type: cell-based, human; details: Homo sapiens, PC-3, PC-3; unit inferred
Experimental: as §1

HL-60 = assay: Bioassay for apoptosis (apoptotic EC50); type: cell-based, human; details: for EC50: Homo sapiens, HL-60, HL-60, unit inferred
Experimental: as §1

C-170 = assay: Bioassay for apoptosis (apoptotic EC50); type: cell-based, human; details: for EC50: Homo sapiens, C170, C-170, unit inferred
Experimental: as §1

ME-180 = assay: Bioassay for apoptosis (apoptotic EC50); type: cell-based, human; details: for EC50: Homo sapiens, ME-180, ME-180, unit inferred
Experimental: as §1

LnCaP = assay: Bioassay for apoptosis (apoptotic EC50); type: cell-based, human; details: for EC50: Homo sapiens, unit inferred
Experimental: as §1

MDA-MB-435 = assay: Bioassay for apoptosis (apoptotic EC50); type: cell-based, human; details: for EC50: Homo sapiens, MDA-MB-435, MDA-MB-435, unit inferred, read-out: apoptotic EC50
Experimental: as §1

MCF-7 = assay: Bioassay for apoptosis (apoptotic EC50); type: cell-based, human; details: for EC50: Homo sapiens, MCF7, MCF-7, unit inferred
Experimental: as §1

RL-95-2 = assay: Bioassay for apoptosis (apoptotic EC50); type: cell-based, human; details: Homo sapiens, RL95-2, RL-95-2; unit inferred
Experimental: as §1

HT-29 = assay: Bioassay for apoptosis (apoptotic EC50); type: cell-based, human; details: Homo sapiens, unit inferred
Experimental: as §1

DU-145 = assay: Bioassay for apoptosis (apoptotic EC50); type: cell-based, human
Experimental: as §1

A-549 = assay: Bioassay for apoptosis (apoptotic EC50); type: cell-based, human; details: unit not given, in µg/mL
Experimental: as §1

Jurkat = assay: Bioassay for apoptosis (apoptotic EC50); type: cell-based, human; details: unit not given, in µg/mL
Experimental: as §1

SMILES | EC50 (HMEC) | EC50 (MDA-MB-231) | EC50 (PC-3) | EC50 (HL-60) | EC50 (C-170) | EC50 (ME-180) | EC50 (LnCaP) | EC50 (MDA-MB-435) | EC50 (MCF-7) | EC50 (RL-95-2) | growth inhibitory (apoptotic inducing) properties specific for human cancer cells [1] | EC50 (MCF-10A) | further results
Cc1c(C)c2c(c(C)c1OCC(=O)N(CC(=O)O)CC(=O)O)CC[C@@](C)(CCC[C@H](C)CCC[C@H](C)CCCC(C)C)O2 [Compound 12] | > 20 µg/mL | 5 to 10 µg/mL (≈ 8.28 to 16.6 µM) | 10 to 20 µg/mL (≈ 16.6 to 33.1 µM) | 20 to 30 µg/mL (≈ 33.1 to 49.7 µM) | 10 to 20 µg/mL (≈ 16.6 to 33.1 µM) | 5 to 10 µg/mL (≈ 8.28 to 16.6 µM) | 20 to 30 µg/mL (≈ 33.1 to 49.7 µM) | 5 to 10 µg/mL (≈ 8.28 to 16.6 µM) | 5 to 10 µg/mL (≈ 8.28 to 16.6 µM) | 5 to 10 µg/mL (≈ 8.28 to 16.6 µM) | effective | > 20 µg/mL | –
Cc1c(C)c2c(c(C)c1OCCCN)CC[C@@](C)(CCC[C@H](C)CCCC(C)CCCC(C)C)O2.Cl (some centres unmarked) [Compound 19] | – | – | – | – | – | – | – | – | – | – | effective | – | apoptotic EC50 (HL-60; HL-60, unit not given, in µg/mL): 10-20; apoptotic EC50 (C-170; C-170, unit not given, in µg/mL): 1-5; apoptotic EC50 (ME-180; ME-180, unit not given, in µg/mL): 1-5; apoptotic EC50 (A-549): 20-30; apoptotic EC50 (LnCaP; unit not given, in µg/mL): 5-10; apoptotic EC50 (MDA-MB-435; MDA-MB-435, unit not given, in µg/mL): 10-20; apoptotic EC50 (DU-145; unit not given, in µg/mL): 5-10; apoptotic EC50 (MCF-7; MCF-7, unit not given, in µg/mL): 10-20; apoptotic EC50 (Jurkat): 10-20
COC(=O)COc1c(C)c(C)c2c(c1C)CC[C@@](C)(CCC[C@H](C)CCC[C@H](C)CCCC(C)C)O2 [Compound 11, Methyl 2,5,7,8-tetramethyl-(2R-(4R,8R,12-trimethyltridecyl)chroman-6-yloxy)acetate] | > 20 µg/mL | > 20 µg/mL | > 20 µg/mL | > 20 µg/mL | > 20 µg/mL | > 20 µg/mL | > 20 µg/mL | > 20 µg/mL | > 20 µg/mL | > 20 µg/mL | – | > 20 µg/mL | –
Cc1c(OCC(=O)O)cc2c(c1C)O[C@](C)(CCC[C@H](C)CCC[C@H](C)CCCC(C)C)CC2 [Compound 8, 2,7,8-trimethyl-(2R-(4R,8R,12-trimethyltridecyl)chroman-6-yloxy)acetic acid] | > 20 µg/mL | 5 to 10 µg/mL (≈ 10.5 to 21.1 µM) | 5 to 10 µg/mL (≈ 10.5 to 21.1 µM) | 10 to 20 µg/mL (≈ 21.1 to 42.1 µM) | 10 to 20 µg/mL (≈ 21.1 to 42.1 µM) | 5 to 10 µg/mL (≈ 10.5 to 21.1 µM) | 5 to 10 µg/mL (≈ 10.5 to 21.1 µM) | 5 to 10 µg/mL (≈ 10.5 to 21.1 µM) | 10 to 20 µg/mL (≈ 21.1 to 42.1 µM) | 1 to 5 µg/mL (≈ 2.11 to 10.5 µM) | effective | > 20 µg/mL | –
Cc1cc(OCC(=O)O)cc2c1O[C@](C)(CCC[C@H](C)CCC[C@H](C)CCCC(C)C)CC2 [Compound 9, 2,8-dimethyl-(2R-(4R,8R,12-trimethyltridecyl)chroman-6-yloxy)acetic acid] | > 20 µg/mL | 5 to 10 µg/mL (≈ 10.9 to 21.7 µM) | 5 to 10 µg/mL (≈ 10.9 to 21.7 µM) | 10 to 20 µg/mL (≈ 21.7 to 43.4 µM) | > 20 µg/mL | 5 to 10 µg/mL (≈ 10.9 to 21.7 µM) | 5 to 10 µg/mL (≈ 10.9 to 21.7 µM) | 5 to 10 µg/mL (≈ 10.9 to 21.7 µM) | 10 to 20 µg/mL (≈ 21.7 to 43.4 µM) | 5 to 10 µg/mL (≈ 10.9 to 21.7 µM) | effective | > 20 µg/mL | –

The next lines start with results.

EC50 (HMEC) | EC50 (MDA-MB-231) | EC50 (PC-3) | EC50 (HL-60) | EC50 (C-170) | EC50 (ME-180) | EC50 (LnCaP) | EC50 (MDA-MB-435) | EC50 (MCF-7) | EC50 (RL-95-2) | SMILES | growth inhibitory (apoptotic inducing) properties specific for human cancer cells [1] | EC50 (MCF-10A) | further results
– | – | > 20 µg/mL | – | – | – | – | > 20 µg/mL | > 20 µg/mL | – | CCCCCCC[C@]1(C)CCc2c(C)c(OCC(=O)O)c(C)c(C)c2O1 [Compound 23, 2,5,7,8-tetramethyl-(2R-(heptyl)chroman-6-yloxy)acetic acid] | – | > 20 µg/mL | EC50 (HT-29): > 20 µg/mL; EC50 (DU-145; Homo sapiens, unit inferred): > 20 µg/mL
> 20 µg/mL | > 20 µg/mL | > 20 µg/mL | > 20 µg/mL | > 20 µg/mL | > 20 µg/mL | > 20 µg/mL | > 20 µg/mL | > 20 µg/mL | > 20 µg/mL | Cc1c(C)c2c(c(C)c1OCC(=O)O)CCC(C)(C)O2 [Compound 14, 2-(2,5,7,8-pentamethylchroman-6-yloxy)acetic acid] | – | > 20 µg/mL | –
